Results published in US10174068B2, “Methods of functionalization and reagents used in such methods using an aza-isatoic anhydride or a derivative thereof, biological molecules thus treated and kits” (BIOMERIEUX, priority 2012, dated 2019).

Tests used:
[1] = system: mixture of HIV RNA transcripts and genomic calf DNA; assay: Selective extraction of HIV RNA transcripts from a mixture with genomic DNA (functionalization/capture/cleavage/elution, Qubit quantification); settings: tag at 1.5 mM; for Final DNA/RNA ratio: after elution step 4
Protocol: For this, two biological models of nucleic acids were selected, HIV transcripts for RNA and genomic calf DNA. In order to compare the efficacy of the aza-isatoic derivative 14, these tests were also carried out on the reference compound Biot-peg4-SS-IAMe at 65° C. and at room temperature.
The nucleic acids used in this example are as follows: • HIV transcripts WT 1500 bases, at 1.94 μg/μL. • gDNA calf thymus, SIGMA (Saint Louis, USA), ref. D4764-5UN, at 1.92 μg/μL.
The following reagents are put in three 0.2-ml plastic tubes (Table 2 below):
In each case, the final concentrations of TEAAc and of functionalizing reagent are 250 mM and 1.5 mM respectively.
The three tubes are incubated for 1 hour at room temperature or at 65° C. on a heated rack.
Purification of the nucleic acids for each test was carried out in 5 different tubes of equivalent volume, in order to meet the optimum conditions for this step (i.e. 1 mg of magnetic silica per 2 μg of nucleic acids). Thus, each test is distributed in five 1.5-mL Eppendorf tubes i.e. 5 times 2.1 μL (2 μg of AN). 900 μL of lysis buffer (Easy Mag buffer, ref. 280134, bioMerieux, Marcy l'Etoile, France) and 50 μL of magnetic silica particles (EasyMAG silica, ref. 280133, bioMerieux, Marcy l'Etoile, France) are added to each tube. The latter are immediately stirred by the vortex effect after adding the silica, and then incubated for 10 minutes at room temperature. After magnetization on a DYNAL magnet, the supernatants are removed by aspiration with a pipette. For the next washing steps, the tubes are always stirred by the vortex effect and magnetized, followed by removal of the supernatant. A first washing is carried out with 500 μL of washing buffer 1 (Easy Mag buffer, ref. 280130, bioMerieux, Marcy l'Etoile, France). Two washings are then carried out with 900 μL and then 500 μL of washing buffer 2 (Easy Mag buffer, ref. 280131, bioMerieux, Marcy l'Etoile, France). Finally, a last washing step is carried out with 500 μL of elution buffer 3 (Easy Mag buffer, ref. 280132, bioMerieux, Marcy l'Etoile, France) at room temperature. […] The latter are analysed with the Qubit® Fluorometer instrument, ref. Q32857, Invitrogen (Carlsbad, Calif., United States of America), and using the kits Quant-iT RNA Assay Kit 5-100 ng (ref. Q32855, Invitrogen, Carlsbad, Calif., United States of America), and Quant-iT dsDNA HS Assay Kit 0.2-100 ng (ref. Q32854, Invitrogen, Carlsbad, Calif., United States of America). These analysis kits allow an RNA/DNA ratio to be determined in a mixture.
To perform this capture on magnetic particles, it is necessary to store each of the tests divided into 5 tubes in the preceding purification step. […] This supernatant is analysed as before with the Qubit® Fluorometer. […]

ORN with 27 bases = assay: Functionalization of a 27-mer ORN, degree of functionalization (Df) by HPLC after nuclease P1/alkaline phosphatase hydrolysis
Protocol: A comparison of the reactivity of the aza-isatoic anhydride derivative 14 relative to the reference isatoic derivative, Biot-peg4-SS-IAMe as described in WO-A-2012/076794, with respect to a 27-base model ORN (seq: 5′-AAC-CGC-AGU-GAC-ACC-CUC-AUC-AUU-ACA-3′, Eurogentec, Liege Science Park, Belgium) is carried out. For this, a fixed amount of ORN is reacted with an isatoic anhydride derivative conjugated with a molecule of interest, at 65° C. and at room temperature. The reaction is monitored by HPLC at 260 nm as was described previously in patent application WO-A-2012/076794 in example 3. This analysis makes it possible to detect the disappearance of the peak corresponding to the initial ORN and the appearance of peaks corresponding to the acylated ORN. These products have a greater retention time, and an absorption spectrum corresponding both to that of the ORN, and to that of the functionalizing reagent.
For precise evaluation of the degree of functionalization (Df), the ORN population (labelled and unlabelled) is separated from the surplus marker by precipitation with acetone/lithium perchlorate. Then the ORNs thus obtained are submitted to hydrolysis with nuclease P1 (Aldrich, Saint Louis, USA) and with alkaline phosphatase (Aldrich, Saint Louis, USA) in order to hydrolyse the phosphate diester bonds of the ORN.
LC-MS analysis of this mixture then allows several populations to be characterized and identified: • unlabelled ribonucleosides; • labelled mono-nucleoside adducts, which differ very clearly by a longer retention time, and by a UV spectrum characteristic of the nucleic acids and of the functionalizing reagent; • dinucleotides acylated at 2′ which, because of the anthranilate group substituted with the group of interest at 2′, cannot be cleaved by the nuclease P1; • per-acylated 2′OH trinucleotides or tetranucleotides, which may form theoretically but which are statistically very little represented (as this would then require two or three consecutive acylations of 2′OH), are not investigated.
The degree of functionalization of the ORN (Df) is evaluated by measuring: • the area corresponding to the terminal mononucleoside adducts (functionalized at 2′ and at 3′) and the area corresponding to the acylated dinucleotides (functionalized internally on the 2′OH) • compared to the area of the peaks corresponding to the four ribonucleosides.
In a standard experiment, the equivalent of 8 nmol of an ORN with 27 bases (5′-AAC-CGC-AGU-GAC-ACC-CUC-AUC-AUU-ACA-3′, Eurogentec, Liege Science Park, Belgium) in solution in water is first dried in a centrifugal evaporator (RCT 60, Jouan, St Herblain, France) in a 2-mL plastic Eppendorf tube. The dry residue obtained is first dissolved in 40 μL of water, then 20 μl of a buffered solution is added (in the example, a 1M triethylammonium acetate buffer solution, pH 7, Aldrich, St Louis, USA ref: 09748-100 ml). Finally, 20 μl of a solution of an isatoic anhydride derivative at 120 mM in DMSO is incorporated in the preceding solution (either the reference molecule Biot-peg4-SS-IAMe as described in FR 1060102 or the aza-isatoic derivative Biot-peg4-SS-azaIAMe (14) in this example). The mixture is incubated for 60 minutes at room temperature or at 65° C. in a stove on a rack pre-equilibrated in temperature. To remove the salts and the surplus marker, the mixture is then purified by triple precipitation in 1.2 mL of an acetone/LiClO4 180 mM 75/25 mixture. […]

ODN with 27 bases = assay: Functionalization of a 27-mer ODN (chemo-selectivity RNA versus DNA); settings: room temperature, 1 hour, reagent 30 mM, DMSO/TEAAc 250 mM pH 7 25/75
Protocol: 8 nmol of ODN with 27 bases, Seq: 5′-AAC-CGC-AGT-GAC-ACC-CTC-ATC-ATT-ACA-3′ (Eurogentec, Liege Science Park, Belgium) or 8 nmol of an ORN with 27 bases, Seq: 5′-AAC-CGC-AGU-GAC-ACC-CUC-AUC-AUU-ACA-3′ (Eurogentec, Liege Science Park, Belgium) is reacted with the aza-isatoic anhydride derivative (14) at 30 mM in a mixture DMSO/buffer TEAAc (250 mM pH 7) 25/75, for 1 hour at room temperature. After precipitation with acetone and hydrolysis with nuclease P1 and alkaline phosphatase, the hydrolysed fragments are analysed by LC-MS, as described in example 3. An example of chromatograms for monitoring the reaction of the ODN or of the ORN with compound 14 is shown in FIG. 6, where traces A, B and C correspond respectively to the initial ORN, the ORN functionalized with compound 14 and precipitated, and the ORN functionalized with 14, precipitated and hydrolysed. Traces D, E and F represent the same results obtained with the ODN.

[2] = 65° C., 60 minutes, TEAAc pH 7, reagent 120 mM in DMSO diluted in the mixture
[3] = room temperature, 1 hour, TEAAc pH 7, reagent 30 mM

Structure (SMILES)	S* (intermediate selectivity index) ([1]; functionalization at 65° C.)	Final DNA/RNA ratio ([1]; functionalization at 65° C.)	uncorrected degree of functionalization (Df) of the ORN (ORN with 27 bases; [2])	uncorrected degree of functionalization (Df) of the ORN (ORN with 27 bases; [3])	melting point	uncorrected degree of functionalization of the ODN (ODN with 27 bases)	S* (intermediate selectivity index) ([1]; functionalization at Rt)	Final DNA/RNA ratio ([1]; functionalization at Rt)	factor of increase of reactivity with respect to an oligoribonucleotide relative to the reference compound (ORN with 27 bases; 65° C.)
O=C(CCCCC1SCC2NC(=O)NC21)NCCOCCOCCOCCC(=O)NCCSSCCC(=O)Nc1cccc2[nH]c(=O)oc(=O)c12 (centres unmarked) [Biot-peg4-SS-IAMe, reference compound]	6	14/86	7.5%	1%	–	–	–	–	–
Cn1c(=O)oc(=O)c2cc(CCC(=O)NCCSSCCNC(=O)CCCCC3SCC4NC(=O)NC43)cnc21 (centres unmarked) [Compound 12, 5-[(3AS,6AR)-2-OXO-HEXAHYDRO-1H-THIENO[3,4-D]IMIDAZOLIDIN-4-YL]-N-(2-{[2-(3-{1-METHYL-2,4-DIOXO-1H,2H,4H-PYRIDO[2,3-D][1,3]OXAZIN-6-YL}PROPANAMIDO)ETHYL]DISULPHANYL}ETHYL)PENTANAMIDE]	–	–	–	–	125 °C	–	–	–	–
Cn1c(=O)oc(=O)c2cc(CCC(=O)NCCSSCCNC(=O)CCOCCOCCOCCOCCNC(=O)CCCCC3SCC4NC(=O)NC43)cnc21 [Compound 14, 1-{5-[(3aS,6aR)-2-oxo-hexahydro-1H-thieno[3,4-d]imidazolidin-4-yl]pentanamido}-N-(2-{[2-(3-{1-methyl-2,4-dioxo-1H,2H,4H-pyrido[2,3-d][1,3]oxazin-6-yl}propanamido)ethyl]disulphanyl}ethyl)-3,6,9,12-tetraoxapentadecan-15-amide]	–	–	13.5%	7.8%	–	0.5%	30	4/96	1.8
